From US20190380978A1, “SOLID ORAL DOSAGE FORMS OF 2R,6R-HYDROXYNORKETAMINE OR DERIVATIVES THEREOF” (priority 2016, published 2019)
Where a name gives a salt, the structure may show the parent alone.

How the values were obtained:
UGT1A1 = target: T1, UGT1A1 (Homo sapiens, UniProt P22309); assay: UGT inhibition assay, UGT1A1; format: in vitro ADME
T1 sequence (P22309 26-533): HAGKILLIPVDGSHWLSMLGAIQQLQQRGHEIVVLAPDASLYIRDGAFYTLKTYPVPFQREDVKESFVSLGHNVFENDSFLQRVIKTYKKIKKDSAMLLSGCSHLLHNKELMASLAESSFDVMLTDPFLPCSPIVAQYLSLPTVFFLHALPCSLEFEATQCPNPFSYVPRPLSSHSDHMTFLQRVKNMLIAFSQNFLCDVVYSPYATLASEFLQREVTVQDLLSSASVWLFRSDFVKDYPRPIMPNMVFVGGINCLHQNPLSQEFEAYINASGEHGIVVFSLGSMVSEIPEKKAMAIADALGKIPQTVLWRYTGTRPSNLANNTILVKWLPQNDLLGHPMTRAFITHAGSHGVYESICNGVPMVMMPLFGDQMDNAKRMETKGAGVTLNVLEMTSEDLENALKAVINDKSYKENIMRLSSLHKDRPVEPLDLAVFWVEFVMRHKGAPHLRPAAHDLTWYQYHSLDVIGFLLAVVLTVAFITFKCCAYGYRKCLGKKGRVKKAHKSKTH
Text: 2R,6R-hydroxynorketamine was therefore investigated for its potential to inhibit this isozyme, along with that of the major UGT isozyme, UGT1A1, using a UGT inhibition assay.

in vitro = conditions: human
UGT2B7 = UGT2B7 (Homo sapiens, UniProt P16662); assay: UGT inhibition assay, UGT2B7; format: in vitro ADME
plasma binding proteins = conditions: background statement on SSRIs; cited from earlier work

UGT2B7, sequence (P16662 24-529): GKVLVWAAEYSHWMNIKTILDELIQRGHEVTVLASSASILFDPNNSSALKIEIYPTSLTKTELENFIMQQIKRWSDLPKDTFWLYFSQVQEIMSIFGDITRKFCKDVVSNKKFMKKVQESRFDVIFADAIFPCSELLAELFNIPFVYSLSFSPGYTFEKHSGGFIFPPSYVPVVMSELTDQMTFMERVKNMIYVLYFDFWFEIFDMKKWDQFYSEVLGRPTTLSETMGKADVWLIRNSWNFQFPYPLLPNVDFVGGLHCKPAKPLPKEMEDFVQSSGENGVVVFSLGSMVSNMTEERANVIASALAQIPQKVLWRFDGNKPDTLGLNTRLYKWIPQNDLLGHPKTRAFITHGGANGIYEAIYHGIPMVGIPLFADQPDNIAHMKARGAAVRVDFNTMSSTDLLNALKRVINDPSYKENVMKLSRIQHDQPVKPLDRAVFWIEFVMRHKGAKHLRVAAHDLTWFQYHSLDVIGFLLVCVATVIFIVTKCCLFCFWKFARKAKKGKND

With `COC(=O)N[C@H](C(=O)N[C@@H](Cc1ccccc1)[C@@H](O)CN(Cc1ccc(-c2ccccn2)cc1)NC(=O)[C@@H](NC(=O)OC)C(C)(C)C)C(C)(C)C` [Atazanavir] the IC50 (UGT1A1) was 0.153 µM.
Molecule `CC(C)NCC(O)COc1cccc2ccccc12` (centres unmarked) [propranolol, reference compound] has a recovery (in vitro; Caco-2, Direction = A2B Mean % Recovery, Caco-2, A2B) of 71.1%, a Papp A→B (in vitro; Caco-2, Direction = A2B Mean Papp, Caco-2, A2B, mean, n 2) of 26.7 ×10⁻⁶ cm/s and a Papp A→B (in vitro; Caco-2, Direction = A2B Papp Replicate 1, Caco-2, A2B, replicate 1) of 26 ×10⁻⁶ cm/s. For the same molecule, the Papp A→B (in vitro; Caco-2, Direction = A2B Papp Replicate 2, Caco-2, A2B, replicate 2) was 27.4 ×10⁻⁶ cm/s, the recovery (in vitro; Caco-2, Direction = B2A Mean % Recovery, Caco-2, B2A) was 82.8% and the Papp B→A (in vitro; Caco-2, Direction = B2A Papp Replicate 2, Caco-2, B2A, replicate 2) was 26.2 ×10⁻⁶ cm/s.
`N[C@@]1(c2ccccc2Cl)CCC[C@@H](O)C1=O` [2R-6R-Hydroxynorketamine Hydrochloride, 2R,6R-hydroxynorketamine hydrochloride] showed an IC50 (UGT2B7) greater than 100 µM and an IC50 (UGT1A1) greater than 100 µM.
For `CNCCC(Oc1ccc(C(F)(F)F)cc1)c1ccccc1` (centres unmarked) [fluoxetine], the protein bound (plasma binding proteins) is listed as 94%.
In the case of `Fc1ccc([C@@H]2CCNC[C@H]2COc2ccc3c(c2)OCO3)cc1` [paroxetine], the protein bound (plasma binding proteins) is listed as 95%.
